Where two headings read alike, the source gives them in different places.
Columns and labels:
[1] = tested on: colorectal cancer; details: cited from earlier work
[2] = tested on: H292 human non-small cell lung carcinoma cell line; details: H292 cells in culture; single agent or combination
Description: The basis of the assay is a luminescent quantitation of ATP present in a cell culture plate well. In essence, the greater the number of viable cells in the well, the greater the level of ATP present. […] Results were calculated as a fraction of the DMSO controlled cells.

[3] = tested on: H292 human non-small cell lung carcinoma cell line; details: H292 cells in culture; single agent or combination; remark: listed apart in the source
Description: To monitor cell apoptosis, DNA fragmentation was measured by using a commercially available kit from Roche. Cells were plated in 90 ul of 10% serum-containing growth media at a density of 5000 cells/well in a 96-well culture plate. On day 2, cells were treated with 10 ul of 10× concentrations of drugs or DMSO alone for a final well volume of 100 ul. After 48 h treatment with the drugs, the cells were assayed for DNA fragmentation according to the manufacture instructions. Results were calculated as fold of induction of DNA fragmentation of the DMSO controlled cells.

Question: For `O=c1[nH]cc(F)c(=O)[nH]1` [5-fluorouracil], which response rates ([1]; single-agent treatment for advanced colorectal cancer) is on record?
Answer: about 10%

Question: Which response rates ([1]; combined with 5-FU and leucovorin, first-line treatment for colorectal cancer) does the source give for `O=C1[O][Pt]2([NH][C@@H]3CCCC[C@H]3[NH]2)[O]C1=O` [oxaliplatin] here?
Answer: 25-40%

Question: Which “inhibition of cell proliferation” value [2] does the source give for `C#Cc1cccc(Nc2ncnc3cc(OCCOC)c(OCCOC)cc23)c1` [TARCEVA™, [6,7-bis(2-methoxyethoxy)-4-quinazolin-4-yl]-(3-ethynylphenyl)amine] here?
Answer: inhibited cell proliferation

Question: And the induction of apoptosis [3]?
Answer: induced apoptosis

— US8575164B2, “Combination cancer therapy” (OSI Pharmaceuticals, LLC, priority 2005, dated 2013)
